Reference: ChEMBL document CHEMBL3988181, “GlaxoSmithKline Published Kinase Inhibitor Set 2 Onchocerca lienalis Screening Data”

Assay: GSK PKIS2: Screen against O. lienalis microfilariae, single point, at 3.1uM to assess reduction in motility. Compounds were also tested for cytotoxicity against Rhesus Monkey LLCMK2 cells.
Type: functional, Onchocerca lienalis, LLC-MK2
Details: CELL_LINE LLCMK2; CELL_SUPPLIER ECACC; CONC 3.1 uM; ORGANISM_SUPPLIER Extracted from peri-umbilical skin obtained from naturally infected cattle in the UK; temperature 37 degree C

`Cc1cccc(-c2nc(Nc3ccc4ncsc4c3)c3ccccc3n2)n1` and `Cc1cccc(-c2nc(Nc3ccc4c(cnn4C)c3)c3ccccc3n2)n1` are the same in “MOTILITY REDUCTION/CYTOTOXICITY” value: 100% for the first, 100% for the second.

`COc1ccc(NC(=O)c2ccc(-c3cc(-c4nnc(C)o4)ccc3C)cc2)cc1` and `Cc1ccc(NC(=O)Nc2cccc(Cl)c2)cc1-c1ccc(C(=O)Nc2ccncc2)cc1` are the same in “MOTILITY REDUCTION/CYTOTOXICITY” value: 33.4% for the first, 33.4% for the second.

Going from `CS(=O)(=O)c1ccccc1-c1nc(-c2ccc(F)cc2)c(-c2ccncc2)[nH]1` to `COc1ccc2cc(-c3nc(-c4ccccc4C(C)C)[nH]c3-c3ccncc3)ccc2c1`, the “MOTILITY REDUCTION/CYTOTOXICITY” value rises from 33.4% to 100%.

Compared with `C[C@@H](Oc1cc(-n2cnc3cc(-c4ccnc(NCCS(C)(=O)=O)c4)ccc32)sc1C(N)=O)c1ccccc1Cl`, `C[C@@H](Oc1cc(-n2cnc3cc(-c4cnn(C)c4)ccc32)sc1C(N)=O)c1ccccc1Cl` is lower in “MOTILITY REDUCTION/CYTOTOXICITY” value: 53.4% for the first, 46.7% for the second.

Going from `COc1cccc(-n2cnc3c(N)ncnc32)c1` to `Nc1ncnc2c1ncn2-c1ccc(Cl)cc1`, the “MOTILITY REDUCTION/CYTOTOXICITY” value rises from 0% to 60%.

Compared with `CCS(=O)(=O)c1ccc(OC)c(Nc2nccc(-c3c(-c4cccc(NC(=O)c5c(F)cccc5F)c4)nn4ncccc34)n2)c1`, `O=C(Nc1cccc(-c2nn3ccccc3c2-c2ccnc(Nc3cccc(C(F)(F)F)c3)n2)c1)c1c(F)cccc1F` is lower in “MOTILITY REDUCTION/CYTOTOXICITY” value: 33.4% for the first, 26.7% for the second.

Going from `Cc1ccc(C)c(NC(=O)NCCNc2ccnc(Nc3ccc(F)cc3)n2)c1` to `O=C(NCCNc1ccnc(Nc2ccc(F)cc2)n1)c1cc2ccccc2s1`, the “MOTILITY REDUCTION/CYTOTOXICITY” value falls from 86.7% to 66.7%.

Compared with `O=C1NC(=O)C(c2ccc(Cl)cc2)=C1Nc1ccccc1`, `O=C1NC(=O)C(c2ccc(Cl)cc2)=C1Nc1ccc(O)cc1` is lower in “MOTILITY REDUCTION/CYTOTOXICITY” value: 33.4% for the first, 0% for the second.

Compared with `O=C(NC1CCN(c2ccnc(Nc3ccc(F)cc3)n2)C1)c1cc2ccccc2s1` (centres undefined), `COc1ccc(Nc2nccc(NCCNC(=O)c3cc4ccccc4s3)n2)cc1` is higher in “MOTILITY REDUCTION/CYTOTOXICITY” value: 0% for the first, 16.7% for the second.

`Cc1cccc(-c2cc(Nc3ccncc3)c3ccccc3n2)n1` and `COc1ccc2nc(-c3cccc(C)n3)nc(Nc3ccncc3)c2c1` are the same in “MOTILITY REDUCTION/CYTOTOXICITY” value: 0% for the first, 0% for the second.

Compared with `O=C(c1ccc(-c2cc(-c3c[nH]nc3-c3ccccn3)ccn2)cc1)N1CCCC1`, `Nc1ncc(-c2ccc3nccc(-c4ccncc4)c3c2)cc1S(=O)(=O)N1CCCCC1` is higher in “MOTILITY REDUCTION/CYTOTOXICITY” value: 0% for the first, 33.4% for the second.

First: CN(c1ccc(NC(=O)N2CCN(CCCN3CCOCC3)CC2)cc1)c1ccnc(Nc2ccc(CS(C)(=O)=O)cc2)n1
Second: CN1CCN(Cc2ccc(NC(=O)Nc3ccc(N(C)c4ccnc(Nc5ccc(CS(C)(=O)=O)cc5)n4)cc3)cc2)CC1
The “MOTILITY REDUCTION/CYTOTOXICITY” value of the first is lower: 0% for the first, 100% for the second.

`CS(=O)(=O)CCNCc1nc(-c2ccc3ncnc(Nc4ccc5c(cnn5Cc5ccccc5)c4)c3c2)cs1` and `c1ccc(Cn2ccc3cc(Nc4ncnc5ccccc45)ccc32)cc1` are the same in “MOTILITY REDUCTION/CYTOTOXICITY” value: 33.4% for the first, 33.4% for the second.

Going from `CCCCc1nn2ncccc2c1-c1ccnc(Nc2ccc(N3CCN(C)CC3)cc2)n1` to `CN(C)CC(O)COc1ccc(Nc2nccc(-c3cnn4nc(N5CCOCC5)ccc34)n2)cc1` (centres undefined), the “MOTILITY REDUCTION/CYTOTOXICITY” value falls from 13.4% to 0%.

First: NC(=O)c1cccc(Nc2nccc(Nc3ccc(Oc4cccc(Cl)c4)c(Cl)c3)n2)c1
Second: COc1ccc(C)c(Nc2ccnc(Nc3ccc(-c4cnc[nH]4)cc3)n2)c1
The “MOTILITY REDUCTION/CYTOTOXICITY” value of the first is higher: 20% for the first, 0% for the second.

Going from `CC1=C(C(=O)Nc2cc3cn[nH]c3cc2F)C(c2ccc(C(F)(F)F)cc2)CC(=O)N1` (centres undefined) to `COC(=O)Nc1nc2ccc(Oc3ccc(CC(=O)Nc4cc(C(F)(F)F)ccc4F)cc3)cc2[nH]1`, the “MOTILITY REDUCTION/CYTOTOXICITY” value rises from 0% to 33.4%.

First: COc1cc(Nc2nccc(N3CCC(NC(=O)Nc4cccc(C(C)=O)c4)C3)n2)cc(OC)c1OC (centres undefined)
Second: COc1cc(Nc2nccc(N3CCC(NC(=O)c4cccc(NC(C)=O)c4)C3)n2)cc(OC)c1OC (centres undefined)
The “MOTILITY REDUCTION/CYTOTOXICITY” value of the first is higher: 100% for the first, 33.4% for the second.

Compared with `CCn1c(-c2nonc2N)nc2c(C#CC(C)(C)O)ncc(OCCCCN)c21`, `CCn1c(-c2nonc2N)nc2cncc(CNC3CCNCC3)c21` is lower in “MOTILITY REDUCTION/CYTOTOXICITY” value: 13.4% for the first, 0% for the second.

Going from `Nc1n[nH]c2cc(-c3ccccn3)ccc12` to `Nc1cccc(-c2ccc3c(N)n[nH]c3c2)c1`, the “MOTILITY REDUCTION/CYTOTOXICITY” value rises from 0% to 33.4%.

`O=C(Nc1n[nH]c2nc(-c3cccs3)c(Br)cc12)C1CCCC1` and `O=C(Nc1n[nH]c2nc(-c3ccco3)c(Br)cc12)c1ccc(CN2CCCC2)cc1` are the same in “MOTILITY REDUCTION/CYTOTOXICITY” value: 0% for the first, 0% for the second.

Going from `Cc1ccc(NC(=O)Nc2ccccc2)cc1-c1ccc(C(=O)Nc2ccncc2)cc1` to `COc1ccc(NC(=O)c2ccoc2)cc1-c1ccc(C(=O)NCC2CC2)cc1`, the “MOTILITY REDUCTION/CYTOTOXICITY” value falls from 100% to 13.4%.

`CNc1ncnc2[nH]ncc12` and `Nc1n[nH]c2cnc(-c3ccccc3)cc12` are the same in “MOTILITY REDUCTION/CYTOTOXICITY” value: 0% for the first, 0% for the second.

Going from `COc1cc2c(Nc3ccc(NC(=O)c4ccccc4)cc3)ncnc2cc1OCCCN1CCOCC1` to `N#Cc1cnc2cc(-c3cnc(CNCCN4CCOCC4)s3)ccc2c1Nc1ccc(Oc2ccccc2)cc1`, the “MOTILITY REDUCTION/CYTOTOXICITY” value rises from 0% to 16.7%.

`Cc1ccc2c(-c3ccncc3)c(-c3ccc(F)cc3)nn2c1` and `CSc1ccc(-c2nc3n(c2-c2ccncc2)CCC3)cc1` are the same in “MOTILITY REDUCTION/CYTOTOXICITY” value: 0% for the first, 0% for the second.

`COC(=O)Nc1nc2ccc(Oc3ccc(NC(=O)Nc4cc(C(F)(F)F)ccc4F)cc3)cc2n1C` and `CN1CCN(CCNc2nc3ccc(Oc4ccc(NC(=O)Nc5cc(C(F)(F)F)ccc5F)cc4)cc3[nH]2)CC1` are the same in “MOTILITY REDUCTION/CYTOTOXICITY” value: 0% for the first, 0% for the second.

Going from `COc1cc(Nc2ccnc3cc(-c4ccncc4)ccc23)cc(OC)c1OC` to `COc1cc(Nc2nccc(N3CCC(NC(=O)Nc4ccc5c(c4)OCO5)C3)n2)cc(OC)c1OC` (centres undefined), the “MOTILITY REDUCTION/CYTOTOXICITY” value falls from 33.4% to 0%.

`NCC(NCc1ccc(-c2ccnc3[nH]ccc23)s1)c1ccccc1` (centres undefined) and `NC[C@H](Cc1ccc(C(F)(F)F)cc1)NC(=O)c1cc(Br)c(-c2ccnc3[nH]ccc23)s1` are the same in “MOTILITY REDUCTION/CYTOTOXICITY” value: 0% for the first, 0% for the second.

Compared with `O=c1[nH]ccc2nc(N[C@@H]3CCNC3)nc(Nc3cc(Cl)cc(Cl)c3)c12`, `COc1cccc(C2=C(Nc3cc(Cl)c(O)c(Cl)c3)C(=O)NC2=O)c1` is lower in “MOTILITY REDUCTION/CYTOTOXICITY” value: 100% for the first, 0% for the second.

`Cc1nccc(-c2c(-c3ccc(F)cc3)ncn2CCCN2CCOCC2)n1` and `COc1nccc(-c2c(-c3ccc(F)cc3)ncn2CCCN2CCOCC2)n1` are the same in “MOTILITY REDUCTION/CYTOTOXICITY” value: 0% for the first, 0% for the second.

`O=c1[nH]cc(-c2ccc(N3CCOCC3)cc2)c2sc(-c3cn[nH]c3)cc12` and `O=c1cc(N2CCOCC2)nc2n(Cc3cccc(Cl)c3)ccn12` are the same in “MOTILITY REDUCTION/CYTOTOXICITY” value: 0% for the first, 0% for the second.

`CS(=O)(=O)Nc1ccc(-c2ccnc3[nH]ccc23)cc1` and `CCCc1ccc(S(=O)(=O)NC2CCN(c3ccnc(Nc4ccc(F)cc4)n3)C2)cc1` (centres undefined) are the same in “MOTILITY REDUCTION/CYTOTOXICITY” value: 0% for the first, 0% for the second.

Going from `Oc1cc(Nc2ccnc3cc(I)ccc23)ccc1F` to `Cc1ccc(O)cc1Nc1ccnc2ccc(C(C)(C)C)cc12`, the “MOTILITY REDUCTION/CYTOTOXICITY” value rises from 33.4% to 100%.

First: COCCNC(=O)c1ccc(-c2cc(C(=O)NC3CC3)cc(F)c2C)cc1
Second: COc1ccc(C2=C(Nc3cccc(C(=O)O)c3)C(=O)NC2=O)cc1
The “MOTILITY REDUCTION/CYTOTOXICITY” value of the first is lower: 0% for the first, 20% for the second.

`O=c1cc(N2CCOCC2)nc2n(Cc3cccc(F)c3)ccn12` and `Cc1nn2c(=O)cc(N3CCOCC3)nc2n1Cc1cccc(Cl)c1Cl` are the same in “MOTILITY REDUCTION/CYTOTOXICITY” value: 0% for the first, 0% for the second.

`CC(C)c1nc(-c2ccc(F)c(NS(=O)(=O)c3c(F)cccc3F)c2)c(-c2ccnc(Nc3ccc(N4CCOCC4)nc3)n2)s1` and `Fc1ccc(Nc2nccc(-c3c(-c4ccc(Cl)cc4)nn4ncccc34)n2)cc1F` are the same in “MOTILITY REDUCTION/CYTOTOXICITY” value: 0% for the first, 0% for the second.

Going from `COc1cc2ncnc(Nc3cccc(Br)c3)c2cc1OC` to `COc1cc2ncn(-c3cc(OCCCc4ccccc4)c(C(N)=O)s3)c2cc1OC`, the “MOTILITY REDUCTION/CYTOTOXICITY” value falls from 60% to 33.4%.

First: COC(=O)Nc1nc2ccc(Oc3ccc(NC(=O)Nc4cccc(SC)c4)cc3)cc2[nH]1
Second: Nc1ncnc2occ(-c3ccc(NC(=O)Nc4cc(C(F)(F)F)ccc4F)cc3)c12 [GW770249X]
The “MOTILITY REDUCTION/CYTOTOXICITY” value of the first is higher: 20% for the first, 0% for the second.

First: Nc1nc(-c2ccccc2F)c(-c2ccnc3ccccc23)s1
Second: Nc1ncnc2c1nc(-c1ccccc1)n2-c1ccccc1
The “MOTILITY REDUCTION/CYTOTOXICITY” value of the first is higher: 46.7% for the first, 0% for the second.

First: CC(=O)c1c(-c2ccncc2)[nH]c(-c2ccncc2)c1C
Second: Cc1cccc(-c2nc(Nc3ccncc3)c3sccc3n2)n1
The “MOTILITY REDUCTION/CYTOTOXICITY” value of the first is lower: 33.4% for the first, 46.7% for the second.

First: Cc1ccccc1CC(=O)N1CCc2cc(-c3cn(C)c4ncnc(N)c34)ccc21
Second: Cn1cc(-c2ccc3c(c2)CCN3C(=O)Cc2ccccc2Cl)c2c(N)ncnc21
The “MOTILITY REDUCTION/CYTOTOXICITY” value of the first is higher: 33.4% for the first, 16.7% for the second.

`COc1ccc(S(=O)(=O)NC2CCN(c3cc(C)nc(Nc4cccc(C#N)c4)n3)CC2)cc1` and `COc1cccc(CC(=O)N2CCc3cc(-c4cn(C)c5ncnc(N)c45)ccc32)c1` are the same in “MOTILITY REDUCTION/CYTOTOXICITY” value: 0% for the first, 0% for the second.

`CN(C)c1cc(-c2ccc3c(N)n[nH]c3c2)nc(N)n1` and `CN1C(=O)C(Nc2cc(Cl)c(O)c(Cl)c2)=C(c2ccc(Cl)cc2)C1=O` are the same in “MOTILITY REDUCTION/CYTOTOXICITY” value: 0% for the first, 0% for the second.

First: CN1CCN(Cc2cccc(-c3ccc4c(Nc5ccc(Oc6ccccc6)cc5)ccnc4c3)c2)CC1
Second: CN1C(=O)C(Nc2ccc(Cl)c(C(=O)O)c2)=C(c2ccc(Cl)cc2)C1=O
The “MOTILITY REDUCTION/CYTOTOXICITY” value of the first is higher: 100% for the first, 0% for the second.

Compared with `FC(F)(F)c1ccc(-c2ncn(CCCN3CCOCC3)c2-c2ccncc2)cc1`, `C[C@@H](Oc1cc(-n2cnc3ccc(NC(=O)NC(C)(C)C)cc32)sc1C(N)=O)c1ccccc1Cl` is higher in “MOTILITY REDUCTION/CYTOTOXICITY” value: 40% for the first, 60% for the second.

For `Cc1cccc(Nc2nc(N[C@H]3CCCC[C@H]3N)ncc2C(N)=O)c1`, the “MOTILITY REDUCTION/CYTOTOXICITY” value was 40%.
